In ChEMBL document CHEMBL3797192, “Potential pancreatic lipase inhibitory activity of phenolic constituents from the root bark of Morus alba L” (Bioorg Med Chem Lett, 2016):

Each compound was assayed against T1, Pancreatic triacylglycerol lipase (Sus scrofa, UniProt P00591) (assay: Inhibition of porcine pancreatic lipase using p-nitrophenyl butyrate as substrate assessed as formation of p-nitrophenol preincubated for 10 mins followed by substrate addition by spectrophotometric method).
T1 sequence (P00591 whole entry): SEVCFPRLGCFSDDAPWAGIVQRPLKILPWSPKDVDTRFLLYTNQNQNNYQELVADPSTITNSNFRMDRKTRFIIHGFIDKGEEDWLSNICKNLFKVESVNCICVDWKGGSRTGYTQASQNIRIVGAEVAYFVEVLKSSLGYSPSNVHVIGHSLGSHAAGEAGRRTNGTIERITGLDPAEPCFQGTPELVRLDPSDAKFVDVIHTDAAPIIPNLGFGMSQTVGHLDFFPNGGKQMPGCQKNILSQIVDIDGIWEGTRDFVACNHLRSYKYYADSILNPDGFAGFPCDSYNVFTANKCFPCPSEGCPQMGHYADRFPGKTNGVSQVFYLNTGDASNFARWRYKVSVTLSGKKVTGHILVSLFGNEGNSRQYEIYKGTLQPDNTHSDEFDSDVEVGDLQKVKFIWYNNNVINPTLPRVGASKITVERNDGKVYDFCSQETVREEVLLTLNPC

**Q.** For `CC(C)=CCC/C(C)=C\Cc1c(O)ccc2cc(-c3cc(O)c4ccoc4c3)oc12`, which IC50 is on record?
**A.** 0.48 µM

**Q.** For `COc1cc(O)cc(-c2cc3ccc(O)c(C/C=C(/C)CCC=C(C)C)c3o2)c1CC=C(C)C`, which IC50 is on record?
**A.** 0.92 µM

**Q.** With `CC(C)=CCCC(C)=CCc1c(O)cc2c(c1O)C(=O)C[C@@H](c1ccc(O)c(CC=C(C)C)c1O)O2` as the compound, how does the IC50 read?
**A.** 0.71 µM

**Q.** How did the IC50 turn out when `COc1cc(O)cc(/C=C/c2ccc(O)cc2)c1C/C=C(/C)CCC=C(C)C` was run?
**A.** 0.85 µM

**Q.** `CC(C)=CCCC1(C)C=Cc2c(O)cc(-c3cc4ccc(O)cc4o3)cc2O1` (centres undefined) was tested. Which IC50 did it give?
**A.** 0.76 µM

**Q.** How did the IC50 turn out when `CC(C)=CCC/C(C)=C\CC/C(C)=C\Cc1c(O)cc(O)c(CC=C(C)C)c1-c1cc2ccc(O)cc2o1` was run?
**A.** 0.39 µM

**Q.** For `COc1cc(O)cc(-c2cc3ccc(O)cc3o2)c1C/C=C(/C)CC/C=C(/C)CCC=C(C)C`, which IC50 is on record?
**A.** 0.57 µM

**Q.** With `CC(C)=CCC/C(C)=C/Cc1c(O)ccc2cc(-c3cc(O)cc(O)c3CC=C(C)C)oc12` [MULBERROFURAN D] as the compound, how does the IC50 read?
**A.** 0.09 µM

**Q.** For `CC(C)=CCC/C(C)=C\CC/C(C)=C\Cc1c(O)cc(O)cc1-c1cc2ccc(O)cc2o1` [MULBERROFURAN W], which IC50 is on record?
**A.** 0.7 µM
